For experiment [1], the target named is 4-aminobutyrate aminotransferase, mitochondrial (Sus scrofa) (UniProt P80147). In words: Inhibition of pig brain GABA-AT in presence of beta-mercaptoethanol at 0.2 M. The following applies: TDE = time-dependent effect.
Experiment [2] has the same target. Nature of the experiment: Residual activity at pig brain GABA-AT assessed by exhaustive dialysis at 0.2 M after 22 hrs relative to control.
Experiment [3] has as its target 4-aminobutyrate aminotransferase, mitochondrial (Sus scrofa, UniProt P80147). In words: Inhibition of pig brain GABA-AT in presence of beta-mercaptoethanol.

As a reminder, the Ki is the equilibrium dissociation constant of an inhibitor or competing ligand from its target.

Chain of 4-aminobutyrate aminotransferase, mitochondrial (Sus scrofa) (P80147 whole entry): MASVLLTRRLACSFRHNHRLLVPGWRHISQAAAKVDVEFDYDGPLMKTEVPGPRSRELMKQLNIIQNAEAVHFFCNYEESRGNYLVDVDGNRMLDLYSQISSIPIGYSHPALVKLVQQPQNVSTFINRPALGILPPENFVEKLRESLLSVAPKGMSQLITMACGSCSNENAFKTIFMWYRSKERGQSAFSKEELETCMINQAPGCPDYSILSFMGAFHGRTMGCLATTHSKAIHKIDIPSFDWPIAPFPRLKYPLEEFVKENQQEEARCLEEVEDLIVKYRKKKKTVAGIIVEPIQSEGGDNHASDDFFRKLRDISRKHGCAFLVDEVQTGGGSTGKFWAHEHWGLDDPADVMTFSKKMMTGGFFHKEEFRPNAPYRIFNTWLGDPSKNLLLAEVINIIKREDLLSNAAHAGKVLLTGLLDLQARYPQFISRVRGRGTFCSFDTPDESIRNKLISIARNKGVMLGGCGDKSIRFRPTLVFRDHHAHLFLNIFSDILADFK
Chain of 4-aminobutyrate aminotransferase, mitochondrial (P80147 whole entry): as above

`N[C@H]1C[C@@H](C(=O)O)CC1=CC(F)(F)F`: the Activity entry in experiment [1] is “tde”; in experiment [2], 13%. Further, the Ki in experiment [3] was 39.2 mM.

On to `N[C@H]1C[C@@H](C(=O)O)C/C1=C/C(F)(F)F`, for which the Activity entry in experiment [1] is “tde”. Also, the Ki in experiment [3] was determined as 7.74 mM.

For the molecule `N[C@H]1C[C@@H](C(=O)O)CC1=C(C(F)(F)F)C(F)(F)F`, the Ki in experiment [3] amounted to 4.2 mM.

Regarding `N[C@H]1C[C@@H](C(=O)O)C=C1F`, the Ki in experiment [3] is 1.3 mM.

For the molecule `N[C@H]1C[C@@H](C(=O)O)C=C1C(F)(F)C(F)(F)F`, the Ki in experiment [3] is 2.8 mM.

Regarding `N[C@H]1C[C@@H](C(=O)O)C=C1C(F)(F)F`, the Activity result in experiment [1] was “tde”; in experiment [2] it was 48%. Moreover, the Ki in experiment [3] is 4.11 mM.

These data come from ChEMBL document CHEMBL1137304, “Fluorinated conformationally restricted gamma-aminobutyric acid aminotransferase inhibitors” (J Med Chem, 2006).
